Calls of active or inactive are those of the source.
Key:
[1] = DRD fibroblast viability loss – cell-based, non-viral oncogenic, luminescence, dose response (AID 1934); assay type: functional; settings: Homo sapiens
[2] = tested on: BJ; assay: cells; assay type: functional, cell-based; settings: Homo sapiens
[3] = target: CAAX prenyl protease 1 (Saccharomyces cerevisiae S288c, UniProt P47154); assay: yeast CAAX protease Ste24 inhibition – biochemical, S. cerevisiae, plate reader, cherry-pick, dose response (AID 488815)
CAAX prenyl protease 1, sequence (P47154 whole entry): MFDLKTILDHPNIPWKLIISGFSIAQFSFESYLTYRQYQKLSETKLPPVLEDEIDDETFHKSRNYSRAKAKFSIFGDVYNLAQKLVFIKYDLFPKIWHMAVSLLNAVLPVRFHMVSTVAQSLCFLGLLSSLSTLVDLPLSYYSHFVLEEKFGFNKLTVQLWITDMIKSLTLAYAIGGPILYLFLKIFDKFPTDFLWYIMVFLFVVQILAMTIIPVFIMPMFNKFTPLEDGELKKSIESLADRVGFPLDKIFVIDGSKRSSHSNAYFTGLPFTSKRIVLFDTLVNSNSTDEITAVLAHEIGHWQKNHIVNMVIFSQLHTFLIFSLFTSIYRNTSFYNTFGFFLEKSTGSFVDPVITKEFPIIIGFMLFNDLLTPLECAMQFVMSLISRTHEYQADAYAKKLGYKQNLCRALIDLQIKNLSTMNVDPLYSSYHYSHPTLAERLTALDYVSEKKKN

[4] = target: Heat shock protein HSP 90-alpha (Homo sapiens, UniProt P07900); assay type: functional, organism-based
[5] = target: T1, CAAX prenyl protease 2 (Saccharomyces cerevisiae S288c, UniProt Q03530); assay type: biochemical
T1 sequence (Q03530 whole entry): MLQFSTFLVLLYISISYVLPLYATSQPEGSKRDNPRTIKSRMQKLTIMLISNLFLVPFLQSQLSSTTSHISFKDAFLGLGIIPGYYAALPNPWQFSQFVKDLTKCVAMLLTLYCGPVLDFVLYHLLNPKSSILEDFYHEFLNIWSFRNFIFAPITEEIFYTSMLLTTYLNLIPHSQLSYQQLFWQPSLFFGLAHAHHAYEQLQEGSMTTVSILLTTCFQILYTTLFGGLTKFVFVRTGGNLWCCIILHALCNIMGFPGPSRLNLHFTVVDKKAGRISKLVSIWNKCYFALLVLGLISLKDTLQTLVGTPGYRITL

[6] = target: T2, Apoptotic protease-activating factor 1 (Homo sapiens, UniProt O14727); assay type: functional
T2 sequence (O14727 whole entry): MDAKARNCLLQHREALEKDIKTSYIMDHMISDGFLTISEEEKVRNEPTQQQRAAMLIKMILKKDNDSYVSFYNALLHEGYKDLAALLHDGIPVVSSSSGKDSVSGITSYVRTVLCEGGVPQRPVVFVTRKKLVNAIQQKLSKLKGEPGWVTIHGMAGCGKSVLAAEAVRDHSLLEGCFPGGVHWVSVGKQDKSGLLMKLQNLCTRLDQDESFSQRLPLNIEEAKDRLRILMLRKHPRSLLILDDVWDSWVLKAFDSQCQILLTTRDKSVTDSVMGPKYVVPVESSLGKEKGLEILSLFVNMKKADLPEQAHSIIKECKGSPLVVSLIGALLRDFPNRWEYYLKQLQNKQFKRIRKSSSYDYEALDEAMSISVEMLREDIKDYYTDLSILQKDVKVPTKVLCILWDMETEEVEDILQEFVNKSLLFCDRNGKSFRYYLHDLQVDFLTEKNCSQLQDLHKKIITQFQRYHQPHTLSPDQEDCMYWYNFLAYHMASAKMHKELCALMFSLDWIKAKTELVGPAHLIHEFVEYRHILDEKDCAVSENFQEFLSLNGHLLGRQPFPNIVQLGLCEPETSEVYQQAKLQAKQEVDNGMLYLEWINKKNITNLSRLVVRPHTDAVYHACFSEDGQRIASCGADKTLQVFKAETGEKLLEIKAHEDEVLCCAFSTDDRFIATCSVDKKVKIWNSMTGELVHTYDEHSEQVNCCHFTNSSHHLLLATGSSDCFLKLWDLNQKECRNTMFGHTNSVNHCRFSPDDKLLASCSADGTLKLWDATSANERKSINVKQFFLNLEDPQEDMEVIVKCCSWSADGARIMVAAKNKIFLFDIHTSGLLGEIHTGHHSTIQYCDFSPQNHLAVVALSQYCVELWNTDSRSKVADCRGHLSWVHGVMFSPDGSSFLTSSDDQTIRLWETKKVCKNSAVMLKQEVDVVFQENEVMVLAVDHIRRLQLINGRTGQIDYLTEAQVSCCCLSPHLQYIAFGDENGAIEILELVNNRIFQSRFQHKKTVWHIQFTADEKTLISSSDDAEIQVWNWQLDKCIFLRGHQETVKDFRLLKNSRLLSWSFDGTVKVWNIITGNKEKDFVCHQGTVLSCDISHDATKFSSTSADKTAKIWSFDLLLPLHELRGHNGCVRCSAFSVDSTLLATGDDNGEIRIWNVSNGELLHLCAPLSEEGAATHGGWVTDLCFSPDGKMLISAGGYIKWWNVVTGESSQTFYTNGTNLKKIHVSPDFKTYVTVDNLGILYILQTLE

[7] = fluconazole-exposed Candida albicans growth modulators – fluorescence, retest, confirmation (AID 2467); assay type: functional, cell-based
[8] = tested on: BJ; assay: BJ-TERT fibroblast viability loss – cell-based, RAS-independent, luminescence, dose response (AID 1933); assay type: functional; settings: Homo sapiens
[9] = target: Melanocortin receptor 4 (Homo sapiens, UniProt P32245); assay type: functional, cell-based;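 also: Cell-based assay with luminescence read-out, confirmatory dose-response testing for agonist activity of biased ligands at MC4R; human U2OS cells with tagged receptor and beta-arrestin; potency of agonists that increase receptor coupling to beta-arrestin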
Melanocortin receptor 4, sequence (P32245 whole entry): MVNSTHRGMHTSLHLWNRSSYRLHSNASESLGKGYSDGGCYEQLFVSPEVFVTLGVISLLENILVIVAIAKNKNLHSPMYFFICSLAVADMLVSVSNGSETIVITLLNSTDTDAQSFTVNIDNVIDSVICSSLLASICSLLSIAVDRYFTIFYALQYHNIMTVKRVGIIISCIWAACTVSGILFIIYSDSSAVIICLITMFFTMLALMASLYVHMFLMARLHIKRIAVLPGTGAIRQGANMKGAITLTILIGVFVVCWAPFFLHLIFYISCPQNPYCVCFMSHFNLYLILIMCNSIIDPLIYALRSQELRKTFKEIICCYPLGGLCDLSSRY

[10] = HEK-293T viability loss after treatment – luminescence, T-cell screen hits, cytotoxicity control for TCR NF-kB inhibitor project, dose response (AID 489026); assay type: functional, cell-based;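 also: cells exposed to compound about 14 hours before the viability readout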
[11] = target: Nucleotide-binding oligomerization domain-containing protein 2 (Homo sapiens, UniProt Q9HC29); assay: inhibition of NOD2-driven NF-kB reporter – cell-based, luminescence, uHTS, HEK293 (AID 1566); assay type: functional
Nucleotide-binding oligomerization domain-containing protein 2, sequence (Q9HC29 whole entry, the tested form may be a part): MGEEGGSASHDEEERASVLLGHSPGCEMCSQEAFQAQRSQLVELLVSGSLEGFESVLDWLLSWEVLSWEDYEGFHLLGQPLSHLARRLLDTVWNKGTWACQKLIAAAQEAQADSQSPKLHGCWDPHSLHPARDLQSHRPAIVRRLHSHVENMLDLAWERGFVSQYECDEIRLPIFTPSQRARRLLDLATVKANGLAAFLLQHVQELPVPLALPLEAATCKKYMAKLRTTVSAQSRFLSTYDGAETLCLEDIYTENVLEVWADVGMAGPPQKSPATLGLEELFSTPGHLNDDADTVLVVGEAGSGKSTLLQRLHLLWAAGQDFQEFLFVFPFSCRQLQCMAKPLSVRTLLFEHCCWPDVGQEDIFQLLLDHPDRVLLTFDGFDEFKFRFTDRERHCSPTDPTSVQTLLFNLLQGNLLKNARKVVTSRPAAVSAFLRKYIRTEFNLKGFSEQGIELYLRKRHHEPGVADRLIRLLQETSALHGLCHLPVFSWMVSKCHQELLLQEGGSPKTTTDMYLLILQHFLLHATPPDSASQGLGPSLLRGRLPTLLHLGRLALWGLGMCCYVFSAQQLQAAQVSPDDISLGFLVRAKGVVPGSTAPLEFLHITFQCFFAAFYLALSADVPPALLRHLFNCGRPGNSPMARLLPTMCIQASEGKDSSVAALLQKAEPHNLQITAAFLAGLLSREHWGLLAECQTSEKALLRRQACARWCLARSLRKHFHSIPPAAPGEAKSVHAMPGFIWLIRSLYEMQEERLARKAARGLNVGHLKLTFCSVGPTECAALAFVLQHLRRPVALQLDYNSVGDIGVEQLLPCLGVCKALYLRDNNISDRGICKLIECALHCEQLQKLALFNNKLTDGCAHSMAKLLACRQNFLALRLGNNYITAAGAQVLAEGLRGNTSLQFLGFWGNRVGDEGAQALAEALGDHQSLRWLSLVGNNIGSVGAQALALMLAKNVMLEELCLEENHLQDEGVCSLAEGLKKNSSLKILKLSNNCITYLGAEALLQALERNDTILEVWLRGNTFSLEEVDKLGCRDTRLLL

[12] = target: T3, Ubiquitin-conjugating enzyme E2 N (Homo sapiens, UniProt P61088); assay type: functional;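 also: Dose-response confirmation in a TR-FRET assay detecting UBC13-driven polyubiquitin chain formation, inhibition measured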
T3 sequence (P61088 whole entry): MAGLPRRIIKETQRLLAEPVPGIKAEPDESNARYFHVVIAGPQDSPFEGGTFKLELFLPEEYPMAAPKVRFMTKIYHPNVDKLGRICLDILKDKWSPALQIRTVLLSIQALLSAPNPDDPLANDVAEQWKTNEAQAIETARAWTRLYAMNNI

[13] = tested on: HEK293; assay: cells; assay type: functional, cell-based; settings: Homo sapiens
[14] = tested on: BJ; assay: BJ-TERT-LT-ST fibroblast viability loss – cell-based, RAS-independent, luminescence, dose response (AID 1935); assay type: functional; settings: Homo sapiens;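 also: BJ fibroblasts immortalized with TERT plus LT and ST oncogenes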
[15] = tested on: HEK293; assay: cells; assay type: functional, cell-based; settings: Homo sapiens; remark: listed apart in the source
[16] = tested on: HEK293; assay: inhibition of NOD1-driven NF-kB reporter – cell-based, luminescence, uHTS, primary screen (AID 1578); assay type: functional; settings: Homo sapiens
[17] = tested on: HEK293; assay: NOD2 signaling inhibitors in MDP-stimulated cells, cell-based, uHTS, luminescence (AID 2001); assay type: functional; settings: Homo sapiens
[18] = NIH-3T3 fibroblast cytotoxicity, dose response, cytotoxicity control, cell-based, fluorescence, Alamar Blue, secondary assay (AID 2327); assay type: functional;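 also: NIH-3T3 mouse fibroblasts cultured with fluconazole at 8 µg/mL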
[19] = tested on: HEK293; assay: cells; assay type: functional, cell-based; settings: Homo sapiens; remark: listed apart in the source
[20] = target: T4, DNA repair protein RAD52 homolog (Homo sapiens, UniProt P43351); assay type: functional, biochemical
T4 sequence (P43351 whole entry): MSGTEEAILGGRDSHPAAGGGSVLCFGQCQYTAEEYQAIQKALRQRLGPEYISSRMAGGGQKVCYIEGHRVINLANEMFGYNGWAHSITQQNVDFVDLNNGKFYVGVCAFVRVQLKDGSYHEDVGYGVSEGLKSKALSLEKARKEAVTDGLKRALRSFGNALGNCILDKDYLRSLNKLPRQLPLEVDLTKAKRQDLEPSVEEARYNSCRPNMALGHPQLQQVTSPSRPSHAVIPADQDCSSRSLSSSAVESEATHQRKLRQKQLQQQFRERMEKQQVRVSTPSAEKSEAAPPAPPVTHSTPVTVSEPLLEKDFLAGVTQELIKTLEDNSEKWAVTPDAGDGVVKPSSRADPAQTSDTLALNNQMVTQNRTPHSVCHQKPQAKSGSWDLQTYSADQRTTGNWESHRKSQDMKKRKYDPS

[21] = tested on: BJ; assay: growth inhibition of engineered Ras-driven BJ cells – cell-based, alamar blue fluorescence, cherrypicked samples, dose response (AID 2631); assay type: functional; settings: Homo sapiens;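 also: confirmatory dose-response assay in RAS-dependent BJ fibroblasts engineered with TERT, LT and ST, with cytotoxicity read by fluorescence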
[22] = tested on: INS1; assay: INS-1E survival protection against cytokine death – cell-based, luminescence, retest, dose response (AID 449756); assay type: functional; settings: Rattus norvegicus;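 also: cell death triggered by IL-1 beta plus TNF-alpha plus IFN-gamma mixture; protective hits raise ATP signal compared with cytokine alone wells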
[23] = MIN6 cell viability loss – mouse insulinoma, cytotoxicity control, dose response (AID 2122); assay type: functional;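 also: confirmatory high-throughput counterscreen run to flag cytotoxic compounds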
[24] = decrease of insulin promoter-GFP reporter – imaging, high-content screening, mouse beta cells (AID 1628); assay type: functional; settings: MIN6
[25] = reduction of Shn3 3'UTR-driven luciferase in osteoblasts – cell-based, Clone20 osteoblasts, firefly luciferase, cherry-picked, dose response (AID 624132); assay type: functional;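 also: firefly luciferase luminescence from reporter carrying the Shn3 3'UTR in osteoblasts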
[26] = non-specific 3'UTR reporter inhibition in Clone20-Shn3RL – cell-based, Renilla luciferase, cherry-picked, counter-screen for Shn3 inhibitor project, dose response (AID 624133); assay type: functional
[27] = target: Galanin receptor type 2 (Homo sapiens, UniProt O43603); assay: Dose Response cell-based high-throughput screening assay to identify antagonists of galanin receptor 2 (GALR2). [Related pubchem assays: 828, 866 ]; assay type: functional
Galanin receptor type 2, sequence (O43603 whole entry): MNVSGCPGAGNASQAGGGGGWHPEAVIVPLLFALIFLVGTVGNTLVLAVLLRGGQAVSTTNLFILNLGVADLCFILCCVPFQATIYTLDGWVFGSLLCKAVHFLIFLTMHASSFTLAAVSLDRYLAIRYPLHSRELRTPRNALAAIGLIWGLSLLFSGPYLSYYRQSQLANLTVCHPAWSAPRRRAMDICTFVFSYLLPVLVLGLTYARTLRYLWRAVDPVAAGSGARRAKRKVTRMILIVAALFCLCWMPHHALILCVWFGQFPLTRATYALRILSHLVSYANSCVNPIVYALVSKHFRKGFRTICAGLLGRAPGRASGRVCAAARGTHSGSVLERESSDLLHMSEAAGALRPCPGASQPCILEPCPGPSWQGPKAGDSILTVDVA

## CCC(C)(C)c1ccc(OCCCC[n+]2cccc(C)c2C)c(C(C)(C)CC)c1
[1]
  EC50: 5.62 µM (active)
[2]
  EC50: 4.18 µM (inconclusive)
[3]
  AC50: 9.82 µM (active)
[4]
  AC50: 5.38 µM (active)
[5]
  AC50: 8.03 µM (active)
[6]
  IC50: 20.2 µM (active)
[7]
  EC50: 0.67 µM (active)
[8]
  EC50: 3.96 µM (inconclusive)
[9]
  EC50: > 3.3 µM (active)
[10]
  IC50: 56.1 µM (inactive)
[11]
  EC50: 8.15 µM (active)
[12]
  IC50: > 20 µM (inactive)
[13]
  IC50: 3.2 µM (active)
[14]
  EC50: 5.09 µM (active)
[15]
  IC50: 6.37 µM (active)
[16]
  EC50: 4.56 µM (active)
[17]
  IC50: 2.48 µM (active)
[18]
  EC50: > 160 µM (inactive)
[19]
  IC50: > 20 µM (inactive)
[20]
  AC50: 31.2 µM (active)
[21]
  EC50: 2.48 µM (active)
[22]
  AC50: 0.632 µM (active)

## COC(=O)c1ccc(COC(=O)c2[nH]c(C)c(C(C)=O)c2C)o1
[23]
  IC50: 3.23 µM (active)
[24]
  IC50: 2.72 µM (active)
[25]
  AC50: 2.58 µM (active)
[26]
  AC50: 2.46 µM (active)
[27]
  IC50: > 42 µM (not active)

From ChEMBL document CHEMBL1201862, “PubChem BioAssay data set” (2004)
